Source: ChEMBL document CHEMBL1201862, “PubChem BioAssay data set” (2004)
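The compound was tested at five concentrations on cells cultured in 96-well plates, with a 48-hour exposure period. Abbreviation: GI50, concentration required for 50% inhibition of growth.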 Calls of active or inactive are those of the source. Cut-off read from the data, not from the text of the source: active = GI50 up to about 1.1 µM and inactive = higher.

Key:
Experiment in all cases: NCI anticancer screen, dose series, 48 h
SK-MEL-5 = system: SK-MEL-5
KM12 = system: KM12
HL-60 = system: HL-60
HCC 2998 = system: HCC 2998
RXF 393 = system: RXF 393
SK-MEL-2 = system: SK-MEL-2
SW-620 = system: SW-620
HOP-62 = system: HOP-62
HT-29 = system: HT-29
UO-31 = system: UO-31
SF-268 = system: SF-268
A498 = system: A498
M14 = system: M14
NCI/ADR-RES = system: NCI/ADR-RES
MDA-MB-231 = system: MDA-MB-231
SK-OV-3 = system: SK-OV-3
NCI-H460 = system: NCI-H460
SF-539 = system: SF-539
LOX IMVI = system: LOX IMVI
HOP-92 = system: HOP-92

Measured: GI50

CCCCSC1=N/C(=C\c2ccco2)C(Cl)=N1
inactive: SK-MEL-5 > 100 µM | KM12 > 100 µM | HL-60 > 100 µM | HCC 2998 > 100 µM | RXF 393 > 100 µM | SK-MEL-2 > 100 µM | SW-620 > 100 µM | HOP-62 > 100 µM | HT-29 > 100 µM | UO-31 > 100 µM | SF-268 > 100 µM | A498 > 100 µM | M14 > 100 µM | NCI/ADR-RES > 100 µM | MDA-MB-231 > 100 µM | SK-OV-3 > 100 µM | NCI-H460 > 100 µM

NC(=O)c1cccc(OCC(O)CO)c1 (stereo not drawn)
inactive: SK-MEL-5 > 100 µM | KM12 > 100 µM | HL-60 > 100 µM | HCC 2998 > 100 µM | SK-MEL-2 > 100 µM | SW-620 > 100 µM | HOP-62 > 100 µM | HT-29 > 100 µM | UO-31 > 100 µM | SF-268 > 100 µM | A498 > 100 µM | M14 > 100 µM | NCI/ADR-RES > 100 µM | SF-539 > 100 µM | MDA-MB-231 > 100 µM | SK-OV-3 > 100 µM | NCI-H460 > 100 µM

Cc1ccc(/N=N/c2c(C)c(C#N)c(=S)n(C3OC(CO)C(O)C(O)C3O)c2-c2ccccc2)cc1 (stereo not drawn)
active: A498 0.74 µM
inactive: SK-MEL-5 11.2 µM | LOX IMVI 17.2 µM | KM12 19 µM | HL-60 36.8 µM | HCC 2998 41.1 µM | RXF 393 17.8 µM | SK-MEL-2 19.5 µM | SW-620 15.6 µM | HOP-62 24.9 µM | HT-29 27.7 µM | UO-31 33.5 µM | SF-268 26.7 µM | M14 14.6 µM | NCI/ADR-RES 29 µM | SF-539 28.5 µM | MDA-MB-231 40 µM | SK-OV-3 34.1 µM | NCI-H460 27.7 µM

O=C1Nc2ccccc2N/C1=C\C(=O)C(F)F
inactive: SK-MEL-5 > 100 µM | LOX IMVI > 100 µM | KM12 > 100 µM | HL-60 > 100 µM | HCC 2998 > 100 µM | RXF 393 > 100 µM | SK-MEL-2 > 100 µM | SW-620 > 100 µM | HOP-62 > 100 µM | HT-29 > 100 µM | UO-31 > 100 µM | SF-268 > 100 µM | A498 > 100 µM | M14 > 100 µM | NCI/ADR-RES > 100 µM | SF-539 > 100 µM | MDA-MB-231 > 100 µM | SK-OV-3 > 100 µM | NCI-H460 > 100 µM

CCC(=O)N1C(=O)C(CC)(CC)C(=O)N1C(=O)CC
inactive: SK-MEL-5 > 100 µM | KM12 > 100 µM | HL-60 > 100 µM | HCC 2998 > 100 µM | RXF 393 > 100 µM | SK-MEL-2 > 100 µM | SW-620 > 100 µM | HOP-62 > 100 µM | HT-29 > 100 µM | UO-31 > 100 µM | SF-268 > 100 µM | M14 > 100 µM | NCI/ADR-RES > 100 µM | MDA-MB-231 > 100 µM | SK-OV-3 > 100 µM | NCI-H460 > 100 µM

O=c1c(S(=O)(=O)Oc2ccccc2)coc2cc(F)ccc12
inactive: SK-MEL-5 > 100 µM | LOX IMVI > 100 µM | KM12 > 100 µM | HCC 2998 > 100 µM | RXF 393 36.1 µM | SK-MEL-2 46.8 µM | SW-620 > 100 µM | HOP-62 > 100 µM | HT-29 > 100 µM | UO-31 46.8 µM | SF-268 > 100 µM | M14 > 100 µM | NCI/ADR-RES 32.4 µM | SF-539 > 100 µM | MDA-MB-231 > 100 µM | SK-OV-3 > 100 µM | NCI-H460 > 100 µM

COc1ccc2c(c1)/C(=C\c1c(C)nc3sc(C)cn13)C(=O)N2
active: SK-MEL-5 0.206 µM | KM12 0.327 µM | HL-60 0.292 µM | HCC 2998 0.337 µM | SK-MEL-2 0.263 µM | SW-620 0.687 µM | HT-29 0.363 µM | A498 0.531 µM | M14 0.75 µM | SF-539 0.204 µM | MDA-MB-231 0.855 µM | NCI-H460 0.205 µM
inactive: LOX IMVI 1.87 µM | RXF 393 1.64 µM | HOP-62 1.53 µM | UO-31 3.92 µM | SF-268 2.35 µM | NCI/ADR-RES 1.36 µM | SK-OV-3 1.64 µM

CCNCCNc1c2ccccc2nc2ccccc12
active: LOX IMVI 0.743 µM | HCC 2998 0.127 µM | SW-620 0.147 µM | HOP-62 0.461 µM | HT-29 0.427 µM | SF-539 0.745 µM | SK-OV-3 1.07 µM | NCI-H460 0.453 µM
inactive: SK-MEL-5 1.66 µM | KM12 1.58 µM | HL-60 2.24 µM | RXF 393 1.23 µM | SK-MEL-2 1.51 µM | UO-31 1.49 µM | SF-268 1.35 µM | M14 1.39 µM | NCI/ADR-RES 2.72 µM | MDA-MB-231 1.24 µM

O=C(O)C1CCCCC1c1c2ccc(=O)c(O)c-2oc2c(O)c(O)ccc12 (stereo not drawn)
inactive: SK-MEL-5 25.5 µM | LOX IMVI 13.8 µM | KM12 35.2 µM | HL-60 20.7 µM | RXF 393 69.7 µM | SK-MEL-2 > 100 µM | SW-620 17.6 µM | HOP-62 31.6 µM | HT-29 74.5 µM | UO-31 44.4 µM | SF-268 9.38 µM | HOP-92 31.6 µM | A498 21.7 µM | M14 64.7 µM | MDA-MB-231 18.6 µM | SK-OV-3 50.6 µM | NCI-H460 37.7 µM

CCOC(=O)c1nc2cc(C(F)(F)F)ccc2nc1Nc1ccc(C(=O)NC(C(=O)OCC)C(=O)OCC)cc1
inactive: SK-MEL-5 20.5 µM | LOX IMVI 54.2 µM | KM12 27.5 µM | HL-60 73.6 µM | HCC 2998 49.4 µM | RXF 393 13.6 µM | SK-MEL-2 52.5 µM | SW-620 40.8 µM | HOP-62 13.8 µM | HT-29 25.1 µM | UO-31 30.6 µM | SF-268 19.5 µM | HOP-92 27.4 µM | A498 25.5 µM | MDA-MB-231 17.4 µM | SK-OV-3 22.2 µM | NCI-H460 73.6 µM

CN1CCN(C(=S)N(C)C(=O)c2ccco2)CC1
inactive: SK-MEL-5 > 100 µM | LOX IMVI > 100 µM | KM12 > 100 µM | HL-60 > 10 µM | HCC 2998 > 100 µM | RXF 393 > 100 µM | SK-MEL-2 > 100 µM | SW-620 > 100 µM | HT-29 > 100 µM | UO-31 > 100 µM | HOP-92 > 100 µM | M14 > 100 µM | MDA-MB-231 > 100 µM | NCI-H460 > 100 µM

COCCn1cnc2c(Cl)nc(Nc3ccccc3)nc21
inactive: SK-MEL-5 38.7 µM | LOX IMVI 17 µM | KM12 > 100 µM | HL-60 22.9 µM | HCC 2998 17.3 µM | RXF 393 20.9 µM | SK-MEL-2 17.7 µM | SW-620 32.3 µM | HOP-62 59.7 µM | HT-29 64 µM | SF-268 39.4 µM | A498 59.4 µM | M14 26.3 µM | NCI/ADR-RES 39.2 µM | SF-539 > 100 µM | MDA-MB-231 27.7 µM | SK-OV-3 37.2 µM | NCI-H460 82.4 µM
